Results taken from article PMC11973282, “RAS70 peptide targets multiforme glioblastoma by binding to the plasma membrane heat shock protein HSP70” (Frontiers in Oncology, 2025).
Like-named read-outs stand apart in the source and are kept apart here.

Key:
[1] = system: C6, GL261, and T98G cells; experiment: MTT test, overall statement for all cell lines studied; conditions: fluorescently labeled peptides, 7.5, 75, 750 µg/mL, 24, 48 and 72 hours
Experimental: 3-(4,5-dimethylthiazol-2-yl)-2,5-diphenyltetrazolium bromide (MTT) assay was performed to evaluate the cytotoxic effect of TKD-sCy5, RAS70-sCy5, and NGL-RGD-sCy5 peptides. The C6, GL261, and T98G cells were seeded in 96-well plates (Thermo Fisher Scientific, Waltham, USA) at concentration of 5*10^3 cells in 100 µL per well, plates were incubated at 37°C in 5% CO2. After 24 hours, peptides were added to the culture medium for final concentration of 7.5, 75, and 750 μg/mL; plates were incubated for 24, 48 and 72 hours. […] At the end of the incubation period, 1 mg/mL MTT solution was added for 4 hours and dissolved with DMSO. The absorbance was measured at 570 nm using Varioskan LUX Multimode Microplate Reader (Thermo Fisher Scientific, Waltham, USA).
Subsequently, we analyzed the cytotoxic effect of the peptides (RAS70, TKD, NGL, NGL-RGD) using the MTT test at various peptides concentrations (7.5, 75, 750 µg/mL) and co-incubation times of 24, 48 and 72 hours.

[2] = system: GL261 cells (lower chamber; HUVEC and astrocytes barrier); experiment: Transwell BBB model, peptide passage and accumulation in tumor cells; conditions: transwell BBB model: HUVEC (5×10^5) and astrocytes (5×10^5) in upper chamber, GL261 (1×10^4) in lower chamber; FITC-labeled peptide; 36 hours; confocal microscopy count; M ± SE, 3 independent experiments
Experimental: (§1) Then, a peptide labeled with a fluorescent label was introduced into the upper chamber and co-incubation was carried out for 12, 24 and 36 hours. At the end of the incubation, the tumor cells were washed with cold phosphate-buffered saline (PBS) and fixed with a 4% solution of paraformaldehyde in PBS. Nuclei were stained with 4’,6-diamidino-2-phenylindole (DAPI). Fluorescent images were obtained using a Leica TCS SP8 confocal microscope (Leica, Germany). To avoid possible cross-interference of different fluorochromes, images for DAPI and FITC were obtained using a sequential sample scanning method. Fluorescently labeled cells were counted in the lower chamber. To estimate the mHsp70-mediated uptake of chaperone-targeted peptides tumor cells prior to incubation were pre-treated with anti-Hsp70 monoclonal antibodies SPA-810 (1:250, Stressgen) and SPA-815 (1:250 Stressgen). To exclude integrin (αvβ3, αvβ5)-mediated penetration of RAS70 tumor cells prior to incubation with peptides were pre-treated with anti- αvβ3 (1:200 clone LM609, ZMS1030, Sigma-Aldrich, USA), -αvβ5 (1:200 clone P1F6, MAB1961Z, Sigma-Aldrich, USA) monoclonal antibodies.
(§2) Then, a peptide labeled with a fluorescent dye (FITC) was introduced into the upper chamber and co-incubation was carried out for 12, 24 and 36 hours. At the end of the incubation, the tumor cells were washed with cold phosphate-buffered saline (PBS) and fixed with a 4% solution of paraformaldehyde in PBS. Nuclei were stained with 4’,6-diamidino-2-phenylindole (DAPI).
(§3) Data from 3 independent experiments are presented as M ± SE. […] Data from 3 independent experiments are presented as M ± SE. ** p < 0.01 for testing mean expression levels.

[3] = system: C6, GL261, T98G mHsp70-positive tumor cells; experiment: Confocal microscopy of peptide binding and internalization; format: cell-based; conditions: for internalization/accumulation in tumor cells by confocal microscopy: 75 μg/mL, co-incubation 15, 30 and 60 minutes
Experimental: The binding of the TKD-sCy5, RAS70-sCy5, and NGL-RGD-sCy5 peptides to tumor cells was visualized using the Olympus FV3000 confocal system (Olympus, Japan). The C6, GL261, T98G, ANI, IBD, TMS cells (0.1×10^6 mL^-1 cells) were placed on Nunc™ Lab-Tek™ Chamber Slide System (Thermo Fisher Scientific, USA) and kept overnight. For primary GBM cells the chambers were pre-coated with Matrigel (0.2 mg/mL, Corning, New York, USA) to increase adhesion properties. The cells were incubated with peptides at a concentration of 75 μg/mL for 15, 30, and 60 minutes on ice in the dark. After the incubation cells were washed with PBS, fixed in a 10% formalin solution (Sigma-Aldrich, Burlington, USA), and mounted using a mounting medium containing DAPI (Ibidi, Graefelfing, Germany). Unstained cells were used as controls.
To study the mechanisms of peptide internalization, cells were incubated with peptides for 30 minutes in 37°C in a 5% CO2, washed with PBS, fixed in a 10% formalin solution (Sigma-Aldrich, USA), permeabilized with 0,1% Triton-X100 solution (Servicebio, Wuhan, China), blocked with 5% bovine serum albumin solution and incubated overnight with Alexa Fluor® 488 Anti-Rab5 antibody [EPR21801] (#ab270094, abcam, USA), and with Alexa Fluor® 488 Anti-LAMP1 antibody [EPR24395-31] (#281758, abcam, USA). After 24 hours cells were washed with 0,1% Tween-20 solution (Sigma-Aldrich, Burlington, USA) and mounted using a mounting medium containing DAPI (Ibidi, Graefelfing, Germany). To study the co-localization of the peptide with endolysosomal markers the raw confocal images (n = 10 for each group) were obtained in a 3-channel, 1024 × 1024 pixel format. Colocalization coefficient (τ-Kendall rank correlation value) was computed with the Coloc2 plugin and ImageJ 1.54g ([32]).
The next step was co-incubation of the target peptide RAS70 labeled with fluorescent dye Cy5 with tumor cells for 15, 30 and 60 minutes, followed by confocal microscopy analysis. […] To exclude processes of active internalization of the peptide, co-incubation of the cells on ice at +4°C was performed. […] Next, we evaluated the targeting properties of RAS70 on primary glioblastoma cells (ANI, IBD, TMS) obtained from neuro-oncological patients ([3]) that were additionally characterized for mHsp70, SOX2, NESTIN, GFAP, β3-Tubulin, Ki-67, and CD133 ( Figures 3A–I ).

[4] = system: C6 cells (lower chamber; HUVEC and astrocytes barrier); experiment: Transwell BBB model, peptide passage and accumulation in tumor cells; conditions: transwell BBB model: HUVEC (5×10^5) and astrocytes (5×10^5) in upper chamber, C6 (1×10^4) in lower chamber; FITC-labeled peptide; 36 hours; confocal microscopy count; M ± SE, 3 independent experiments
Experimental: as §1, §2, §3

[5] = RAS70 solution stability study (HPLC-QTOF/MS); format: physicochemical; conditions: 1 mg/mL stock in sterile 0.9% sodium chloride, diluted working solutions, Protein LoBind tubes, HPLC-QTOF/MS peak area normalized to internal standard dalargin vs freshly prepared solutions
Description: HPLC grade reagents include acetonitrile (1.00029) and formic acid (5.33002), were purchased from Sigma Aldrich. The deionized HPLC grade water was obtained through a Milli-Q system (Millipore, Milford, MA, USA). Sodium acetate (Sigma Aldrich, St. Louis, USA) was used for MS calibration. Dalargin (Tyrosyl-D-alanyl-glycyl-phenylalanyl-leucyl-arginine; UNII V13505565P) was used as an internal standard. Protein LoBind® Tubes (022431081, Eppendorf, Hamburg, Germany). The stock solution of RAS70 were prepared by dissolving 1 mg of RAS70 reference standard in 1 mL of a sterile solution of 0.9% sodium chloride in water. After centrifugation the supernatant were transferred into Protein LoBind Tubes (Eppendorf, Hamburg, Germany). Working standard solutions for stability study were prepared using a dilution method. All of the solutions were stored away from light at RT and in a refrigerator at +4°C. The samples were analyzed on a HPLC-QTOF/MS system (Bruker Daltonics, Bremen, Germany) that consisted of an Elute UHPLC coupled to Q-TOF Maxis Impact equipped with an electrospray ionization source ( Supplementary Figure S1 ). […] Chromatograms and mass spectra were analyzed using DataAnalysis® 5.0 software (Bruker Daltonics GmbH, Bremen, Germany). […]

[6] = system: C6 cells (lower chamber; HUVEC and astrocytes barrier)
Experimental: as §1, §2, §3

[7] = system: U251 cells (lower chamber; HUVEC and astrocytes barrier)
Experimental: as §1, §2, §3

Compound	cytotoxic effect (MTT test) [1]	fluorescently labeled tumor cells in the lower chamber [2]	internalization/accumulation in tumor cells by confocal microscopy ([3]; Cy5-labeled peptide)	fluorescently labeled tumor cells in the lower chamber [4]	time for which RAS70 solution was stable ([5]; storage at RT away from light)	time for which RAS70 solution was stable ([5]; storage in refrigerator at +4°C away from light)	co-localization with early endosome (Rab5) and lysosome (LAMP-1) markers ([3]; 30 minutes at 37°C, confocal microscopy)	subcellular localization ([3]; Cy5-labeled peptide, confocal microscopy)	penetration into cells on ice ([3]; co-incubation on ice at +4°C to exclude active internalization, data not shown)	fluorescently labeled tumor cells in the lower chamber [6]	fluorescently labeled tumor cells in the lower chamber [7]
CC(C)C[C@H](NC(=O)[C@H](CC(C)C)NC(=O)[C@H](CC(N)=O)NC(=O)[C@H](CC(N)=O)NC(=O)[C@H](CC(=O)O)NC(=O)[C@H](CCCCN)NC(=O)[C@@H](N)[C@@H](C)O)C(=O)NCC(=O)N[C@@H](CCCNC(=N)N)C(=O)N[C@@H](Cc1ccccc1)C(=O)N[C@@H](CCC(=O)O)C(=O)N[C@@H](CC(C)C)C(=O)N[C@@H](CO)C(=O)NCC(=O)O [TKD]	did not reveal the toxic effect	289 ± 51 cells	internalization of the TKD peptide by tumor cells was noted, reaching maximum absorption of the peptide after 60 minutes	301 ± 35 cells	–	–	–	–	–	–	–
CC(C)C[C@H](NC(=O)[C@H](CC(C)C)NC(=O)[C@H](CC(N)=O)NC(=O)[C@H](CC(N)=O)NC(=O)[C@H](CC(=O)O)NC(=O)[C@H](CCCCN)NC(=O)[C@@H](N)[C@@H](C)O)C(=O)NCC(=O)N[C@@H](CCCNC(=N)N)C(=O)N[C@@H](Cc1ccccc1)C(=O)N[C@@H](CCC(=O)O)C(=O)N[C@@H](CC(C)C)C(=O)N[C@@H](CO)C(=O)NCC(=O)NCCC(=O)N[C@@H](CCCNC(=N)N)C(=O)NCC(=O)N[C@@H](CC(=O)O)C(=O)O [RAS70]	–	–	higher accumulation of the peptide was detected as compared to TKD or control	–	1 week	1 week	only partially penetrated the cell via the endolysosomal pathway	predominantly localized in the cytoplasm of cells without penetrating into the nuclei	significant decrease in the penetration	567 ± 72 cells	603 ± 87 cells
